Experimental data as given in PubChem BioAssay AID179 (DTP/NCI, 2004).
The source made the active and inactive calls.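 Rule for the calls: active = compounds giving half or more protection of infected cells from virus-caused growth loss, again on retest; inactive = the rest.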

System: CEM cells HIV-1 protection, formazan growth assay
Experiment: NCI AIDS Antiviral Assay
Settings: for IC50: measured here: growth of uninfected CEM cells
Method in brief: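 Protection of CEM cells against HIV-1 was scored from cell growth (soluble formazan) across five concentrations, with parallel uninfected cells. Lack of protection may reflect toxicity.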

| SMILES | outcome | IC50 | EC50 |
| --- | --- | --- | --- |
| CC1(c2ccccc2)CC(c2cccc([N+](=O)[O-])c2)=NO1 (stereo not drawn) | inactive | 43.7 µM | – |
| COc1ccc(C(=O)N2CCN(c3ccc4c(c3)OCC(=O)N4)CC2)cc1 | – | > 200 µM | > 200 µM |
| CCOCC(CN(CC)CC)N(CC)CC(=O)Nc1c(C)cccc1C (stereo not drawn) | – | 4.17 µM | > 200 µM |
| O=[N+]([O-])c1ccc(/C=c2\sc3scc(-c4ccc([N+](=O)[O-])cc4)[n+]3\c2=C/c2ccc([N+](=O)[O-])cc2)cc1 | – | 97.7 µM | > 200 µM |
| COc1c(O)c2c3c(cc(C)cc3c1C(C)C)OC2 | – | > 28.2 µM | > 28.2 µM |
| CC1=NC(C)(CO)CO1 (stereo not drawn) | – | > 200 µM | > 200 µM |
| S=C1NC2=S(N=C(Nc3ccccc3)N2c2ccccc2)S1 (stereo not drawn) | inactive | – | – |
| CC(=O)C1Cn2c(=O)c3cc4ccccc4cc3c(=O)n2C=C1C (stereo not drawn) | – | > 112 µM | > 112 µM |
| CCOC(=O)C1(N)CCc2[nH][nH]c(=O)c2C1 (stereo not drawn) | – | > 200 µM | > 200 µM |
| C/C(CCN(C)C)=N/O | inactive | – | – |
| Cc1c(C)c2c(c(N)c1C#N)C(=O)N(Cc1ccc(S(N)(=O)=O)cc1)C2=O | – | > 200 µM | 69.2 µM |
| COc1cc(Cc2cnc(N)nc2N)cc(OC)c1OCCCNc1ccc([N+](=O)[O-])cc1 | inactive | – | – |
| CN(C)C=C1C(=O)NC(=O)NC1=O | – | > 200 µM | > 200 µM |
| CN(C)c1ccc2c(c1)-c1cc(N(C)C)ccc1C2=CC=C1C(=O)NC(=S)NC1=O | – | > 12.3 µM | > 12.3 µM |
| NS(=O)(=O)c1nnc(NC(=O)c2cccc([N+](=O)[O-])c2)s1 | – | > 200 µM | > 200 µM |
| C/C(=C\c1ccc([N+](=O)[O-])cc1)C(=O)O | – | > 174 µM | > 174 µM |
| CCCCCCCCCC=C(c1cc(Cl)c(O)c(C(=O)O)c1)c1cc(Cl)c(O)c(C(=O)O)c1 | – | 49 µM | 45.7 µM |
| CCOC(=O)C(NC(=O)OCc1ccccc1)C(=O)O (stereo not drawn) | – | > 200 µM | > 200 µM |
| COC(=O)C1CCC(=O)N1C(c1ccc2c(c1)OCO2)c1cc(OC)c(OC)c(OC)c1 (stereo not drawn) | – | > 200 µM | > 200 µM |
| C/C(=N/NC(=S)N1CCCC1)c1cccc(/C(C)=N\NC(=S)N2CCCC2)n1 | – | 0.123 µM | > 2 µM |
| Cc1cc(-c2ccco2)oc(=O)c1NC(=O)c1cnccn1 | – | > 200 µM | > 200 µM |
| CCOC(=O)CSc1nc2ccccc2c(=O)n1N | – | > 200 µM | > 200 µM |

| SMILES | outcome | IC50 | EC50 |
| --- | --- | --- | --- |
| N#C/C(=C\NC(=S)Nc1ccc(S(=O)(=O)Nc2nccs2)cc1)C(=O)c1ccc2ccccc2c1 | – | 36.3 µM | > 200 µM |
| CC1(C)OC(CCC#N)CN1C(=O)OCc1ccccc1 (stereo not drawn) | – | 135 µM | > 200 µM |
| CCc1cc(-c2nsc(=O)o2)c(S(=O)(=O)CC)s1 | – | 93.3 µM | > 200 µM |
| N#CC(/C(CCCC(=O)Nc1cccc([N+](=O)[O-])c1)=N/NC(=O)c1cc2ccccc2cc1O)c1ccccc1 (stereo not drawn) | – | 15.5 µM | > 35.5 µM |
| O=C(O)CNCc1c2ccccc2nc2ccccc12 | inactive | – | – |
| C[Si](C)(C)/N=C1\N2C(=NC1(C(F)(F)F)C(F)(F)F)Sc1ccccc12 | inactive | – | – |
| CNC(=O)NCCCC(NC(C)=O)C(=O)NCc1ccccc1 (stereo not drawn) | – | > 112 µM | > 112 µM |
| O=C1c2ccc(S(=O)(=O)O)c(O)c2C(=O)c2ccc(S(=O)(=O)O)c(O)c21 | inactive | – | – |
| O=Nc1ccc(Cl)cc1 | inactive | – | – |
| COC1=C(C)C(=O)C(=O)c2ccccc21 | inactive | – | – |
| CC1(C)CC2C(=O)c3ccccc3NC2c2ccccc21 (stereo not drawn) | – | 0.269 µM | > 2 µM |
| CC(NC(=O)/C(=C/c1ccccc1)NC(=O)c1ccccc1)C(=O)O (stereo not drawn) | – | > 200 µM | > 200 µM |
| CCN(CC)C(=O)c1c(Cl)cc(N(CC)CC)oc1=O | – | > 832 µM | > 832 µM |
| COc1c(OC2OC(CO)C(O)C(O)C2O)cc2occ(-c3ccc4c(c3)OCO4)c(=O)c2c1O (stereo not drawn) | – | > 200 µM | > 200 µM |
| Nc1c(N=O)c(=O)n(Cc2ccccc2)c(=O)n1Cc1ccccc1 | – | 11.7 µM | > 200 µM |
| CC12CP(=O)(c3ccccc3)CC1c1ccccc1C2c1ccccc1 (stereo not drawn) | – | 31.6 µM | > 200 µM |
| CCCCCCCCCCC#CCC(=O)SCCNC(=O)CCNC(=O)[C@@H](O)C(C)(C)COP(=O)(O)OP(=O)(O)OCC1OC(n2cnc3c(N)ncnc32)C(O)C1OP(=O)(O)O (stereo partly drawn) | inactive | – | – |
| COc1nc(NC2OCC(OC(C)=O)C(OC(C)=O)C2OC(C)=O)c(C(=O)CCl)c(=O)n1C (stereo not drawn) | inactive | – | – |
| CC(=O)OC1CCn2nnc(CO)c21 (stereo not drawn) | inactive | – | – |
| Oc1ccccc1C(Nc1nc2ccccc2s1)c1ccc2cccnc2c1O (stereo not drawn) | – | 2.57 µM | > 33.9 µM |
| CCCCCCCCCCCCN(CCCCCCCCCCCC)CC(=O)Nc1ccc(S(=O)(=O)c2ccc(NC(=O)CN(CCCCCCCCCCCC)CCCCCCCCCCCC)cc2)cc1 | – | 2.57 µM | > 50.1 µM |
| C=CC1(C)CCC2C(=CCC3C2(C)CC(O)C(O)C3(C)COC2OC(CO)C(O)C(O)C2O)C1 (stereo not drawn) | – | 39.8 µM | > 200 µM |

| SMILES | outcome | IC50 | EC50 |
| --- | --- | --- | --- |
| COc1ccccc1NC(=O)C1=C(C)NC(C)=C(C(=O)Nc2ccccc2OC)C1c1cccc2c1OCO2 | inactive | – | – |
| Clc1ccccc1C1=NN(c2ccccc2)C2c3cc(Br)ccc3OCC12 (stereo not drawn) | – | > 81.3 µM | > 81.3 µM |
| CN(C)c1ccc(C=C2C(=O)c3ccccc3C2=O)cc1 | inactive | – | – |
| COCc1ccc2c(c1)C(O)NC(=O)O2 (stereo not drawn) | – | 58.9 µM | > 200 µM |
| CCn1nc2c3c(ncn3C(C)(C)O2)c1=O | – | > 200 µM | > 200 µM |
| CCOC(=O)c1c2c(nc3c1CCC/C3=C\c1ccccc1)/C(=C/c1ccccc1)CCC2 | – | > 200 µM | > 200 µM |
| COC1OC2COc3ccccc3OC2C2N=C(N)SC12 (stereo not drawn) | – | 363 µM | 295 µM |
| CC(=O)Nc1c(C(=O)O)[nH]c(=O)[nH]c1=O | – | > 200 µM | > 200 µM |
| N#CC1(C#N)C2C=CC(c3coc4cccc2c34)C1(C#N)C#N (stereo not drawn) | inactive | – | – |
| CCCCCNC(=O)C1C(=O)N(CCCCC)C(=O)/C1=N\N (stereo not drawn) | – | > 12 µM | > 12 µM |
| CCOC(=O)/C(C#N)=C/c1ccc(C#N)cc1 | – | > 22.9 µM | > 22.9 µM |
| C#CC1(O)CCC2[C@@H]3CCc4cc(Oc5nc(F)nc(-c6c(C)c(C(=O)OCC)n7ccccc67)n5)ccc4C3CC[C@@]21C (stereo partly drawn) | – | > 100 µM | > 100 µM |
| c1cnc2c(c1)CCc1cc3cccnc3nc1-2 | – | 186 µM | > 200 µM |
| CCNC(=S)N/N=C/c1ccccn1 | – | 0.851 µM | > 200 µM |
| CC(=O)CSc1c(-c2ccccc2)c(=O)n(-c2ccccc2)c(=S)n1-c1ccccc1 | – | 79.4 µM | > 200 µM |
| O=C(CCCN1CC=C(n2c(=O)[nH]c3ccccc32)CC1)c1ccc(F)cc1 | – | 89.1 µM | > 200 µM |
| CCC1CC2CN3CCc4c([nH]c5ccc(OC)cc45)C(COC(=O)c4ccc(OC)c(OC)c4)(C2)C13 (stereo not drawn) | inactive | – | – |
| COC(=O)C(CCCC1(c2ccccc2)OCCO1)C(C)=O (stereo not drawn) | – | > 200 µM | > 200 µM |
| COc1c(Br)cc(/C=C(\C#N)c2ccccn2)cc1Br | – | > 100 µM | > 100 µM |
| CC1=NC(=Cc2cccc(Cl)c2)C(=O)N1n1c(-c2ccccc2)nc2ccccc2c1=O | – | 36.3 µM | > 200 µM |
| CC(C)(C)OC(=O)N(CCCCNC(=O)c1ccccc1)CCCNC(=O)c1ccccc1 | – | 45.7 µM | > 200 µM |
| O=C1/C(=C/c2ccc([N+](=O)[O-])cc2)CCCc2ccccc21 | – | > 141 µM | > 141 µM |

| SMILES | outcome | IC50 | EC50 |
| --- | --- | --- | --- |
| COC(=O)[C@]12CCC(C)[C@H](C)[C@H]1C1=CCC3[C@@]4(C)CC[C@H](OC(C)=O)C(C)(C)C4CC[C@@]3(C)C1(C)C(O)C2 (stereo partly drawn) | inactive | – | – |
| CCN(CC)c1ccc2c(C)cc(=O)oc2c1 | – | 105 µM | > 219 µM |
| Cc1cc(Cl)c(O)c(-c2cc(-c3cccc([N+](=O)[O-])c3)c3c(N)[nH]c(=S)nc3n2)c1 | – | 3.89 µM | > 200 µM |
| Cc1ccc(NC(=O)C(=O)CC(=O)c2sc(Nc3c(C)cccc3C)nc2C)cc1C | – | > 200 µM | > 200 µM |
| O=C(NCCCl)c1ccc(Cl)c(Cl)c1 | inactive | – | – |
| O=[N+]([O-])C(/C=C(\Cl)[N+](=O)[O-])=C1Nc2ccccc2N1 | – | 35.5 µM | > 200 µM |
| N#CC(/C(=N/NC(=O)C(=O)NN)C(=O)Nc1nc([N+](=O)[O-])cs1)c1ccc(Cl)cc1 (stereo not drawn) | – | 209 µM | 95.5 µM |
| COC1CC2C=C(C)/C=C/C=C/C(=O)NC(c3ccccc3)C/C=C/CCC(O)CC(=O)C2=C1O (stereo not drawn) | – | 0.562 µM | > 20.9 µM |
| CC1(CO)OC(n2cnc3c(N)ncnc32)C(O)C1O (stereo not drawn) | – | > 891 µM | > 891 µM |
| O=C(/C=C/c1ccccc1)/C=N/N1C(=S)N(c2ccccc2)C(=Nc2ccccc2)C1=Nc1ccccc1 | – | > 200 µM | > 200 µM |
| NNC(=S)N/N=C(\CC1OC(=O)c2ccccc21)c1ccccc1O (stereo not drawn) | – | 209 µM | > 363 µM |
| O=C1C(Cl)C(c2ccc(O)cc2)N1n1cnc2ccccc2c1=O (stereo not drawn) | – | > 15.1 µM | > 15.1 µM |
| [NH-]CC[NH-].[NH-]CC[NH-].[NH-]CC[NH-].[Ni+2].[O-][Cl+3]([O-])([O-])O | – | 77.6 µM | > 200 µM |
| CCCc1cc(=O)oc2c3c(c4c(c12)OC(C)(C)C=C4)O[C@H](C)[C@@H](C)[C@@H]3OC(=O)CCl | – | 15.8 µM | 4.57 µM |
| COC(=O)C(=O)C(C(=O)C(=O)Nc1ccccc1C(N)=O)c1nc2ccc(C(=O)c3ccccc3)cc2[nH]c1=O (stereo not drawn) | – | 63.1 µM | > 240 µM |
| O=c1c(C(c2ccc(Cl)cc2)c2c(O)c3ccccc3n(-c3ccccc3)c2=O)c(O)c2ccccc2n1-c1ccccc1 | – | > 8.71 µM | > 8.71 µM |
| CSCCC(C(=O)O)N(CC1(O)OCC(O)C(O)C1O)N=O (stereo not drawn) | inactive | – | – |
| O=C(C/C(CCC(=O)N(Cc1ccccc1)Cc1ccccc1)=N/Nc1ccc([N+](=O)[O-])cc1[N+](=O)[O-])c1ccccc1 | inactive | – | – |
| CC(CCN1CCN(CCC(C)CC(C)(C)C)S1(=O)=O)CC(C)(C)C (stereo not drawn) | inactive | – | – |
| NC1=NS(=O)(=O)Nc2nc[nH]c21 | – | > 1320 µM | > 1320 µM |
| CCN1C(=O)C(=O)OC1=C(c1ccccc1)c1ccccc1 | inactive | – | – |
